Laboratory results published in patent US10696996B2, “Biosynthesis of everninomicin analogs in Micromonospora carbonacea var aurantiaca” (VANDERBILT UNIVERSITY, priority 2015, dated 2020).
Values after ≈ are worked out from the molar mass of the structure shown. Like-named read-outs stand apart in the source and are kept apart here.

Assays:
[1] = target: T1, HygX (Streptomyces hygroscopicus, UniProt Q2MFS1); test: tryptophan fluorescence quenching assay, hygromycin B binding to HygX; design: species or system S. hygroscopicus; settings: 20° C.
T1 sequence (Q2MFS1 1-258): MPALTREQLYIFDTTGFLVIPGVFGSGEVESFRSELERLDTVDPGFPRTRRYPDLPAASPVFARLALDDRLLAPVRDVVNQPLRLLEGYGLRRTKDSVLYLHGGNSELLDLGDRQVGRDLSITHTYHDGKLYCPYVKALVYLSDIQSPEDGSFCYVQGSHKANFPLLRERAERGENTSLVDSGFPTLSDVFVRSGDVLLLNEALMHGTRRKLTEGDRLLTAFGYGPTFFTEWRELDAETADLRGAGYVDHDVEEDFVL
Procedure: The Kd of hygromycin B binding to HygX was determined by monitoring the quenching of intrinsic fluorescence from the single tryptophan residue of HygX upon hygromycin B binding. Using a Cary Eclipse Varian fluorescence spectrometer, sample fluorescence was measured at 20° C. with both emission and excitation slits set at 10 nm and detector voltage set to 800 V. The […] wavelength was set to 280 nm, and spectra collected were from 300 to 400 nm, with 350 nm used for calculating binding affinity. Each sample contained 990 μL of 0.5 μM HygX in 25 mM Tris (pH 7.4), 75 mM NaCl, 0.05 mM AKG, and 0.05 mM NiCl2, which was then mixed with 10 μL of hygromycin B (diluted in the above buffer) of varying concentrations. Spectra were measured in triplicate, and the experiment repeated three times. Because hygromycin B at higher concentrations has background fluorescence between 300 and 400 nm, the experiment was repeated using only buffer and subtracted from the measurement taken with HygX present. Change in fluorescence resulting from changing hygromycin B concentration was plotted against hygromycin B concentration and fit to a single binding-site model using Kaleidagraph Version 4.0.

[2] = tested on: Staphyloccocus aureus subsp. aureus Rosenbach (ATCC 6538P); test: broth microdilution assay (NCCLS), antibacterial activity; type: cell-based, Staphylococcus aureus; settings: for MIC: S. aureus subsp. aureus Rosenbach, broth microdilution
Procedure: The antibacterial activity of purified everninomicins and conjugates was determined by the broth microdilution assay according to NCCLS guidelines using Staphyloccocus aureus subsp. aureus Rosenbach (ATCC 6538P) as the test organism.

[3] = tested on: M. carbonacea; test: nalidixic acid concentration test for conjugation, survival of M. carbonacea; type: cell-based, Micromonospora carbonacea var aurantiaca
[4] = tested on: E. coli; test: nalidixic acid concentration test for conjugation, growth of donor E. coli; type: cell-based, Escherichia coli
Procedure: M. carbonacea was grown on TSB agar (Oxoid™ Tryptone Soy Broth, 2% agarose) for 7 days at 30° C. Conjugal acceptor mycelia were prepared by inoculating a loop of mycelia into 10 mL of TSB medium in a 50 mL Falcon tube and incubating with shaking at 30° C. for 5 days. The culture was then centrifuged at 3000×g for 10 minutes and the pellet resuspended in 2 mL fresh TSB. 150 μL aliquots were transferred into sterile 1.5 mL Eppendorf tubes and homogenized using a sterile plastic cell homogenizer. Donor E. coli ET12567/pUZ8002 cells containing the gene replacement were prepared by inoculating 1% of a freshly prepared overnight LB culture into 10 mL LB medium in a 50 mL Falcon tube containing apramycin and kanamycin and grown to an OD600 of 0.4 at 37° C. with shaking. The culture was centrifuged at 3000×g for 10 minutes, and the pellet was washed three times with 10 mL fresh LB. After the final wash, the pellet was resuspended in 150 μL LB. 50 μL of donor E. coli was added to 150 μL of recipient M. carbonacea. The bacterial mixture was plated on AS1 agar (0.1% yeast extract, 0.5% soluble starch, 0.02% L-alanine, 0.02% L-arginine, 0.05% L-asparagine, 0.25% NaCl, 1% Na2SO4, 2% agarose at pH 7.5, supplemented with 10 mM MgCl2). The plates were then incubated at 37° C. for 1-2 hours until thoroughly dried. […]

[5] = Staphylococcus aureus, ATCC6538P, read-out: MIC

**Q.** How did the Kd [1] turn out when `CNC1CC(N)C(O)C(OC2OC(CO)C(O)C3OC4(OC(C(N)CO)C(O)C(O)C4O)OC23)C1O` (stereo not shown) [hygromycin B] was run?
**A.** 3.4 ± 0.5 µM

**Q.** For `CCC1OC(=O)C[C@@H](O)[C@H](C)[C@@H](OC2OC(C)CC(N(C)C)C2O)[C@@H](CC=[N+]([O-])[C@@]2(C)C[C@@H](O[C@@H]3C[C@H](O[C@@H]([C@H](O)CC(=O)O)[C@@H](C)O)O[C@H](C)[C@H]3OC(=O)c3c(C)c(Cl)c(O)c(Cl)c3OC)O[C@@H](C)[C@H]2OC)C[C@@H](C)C(=O)/C=C/[C@]2(C)O[C@H]2[C@@H]1C` (stereo partly shown), which MIC [2, 5] is on record?
**A.** 1 µg/mL (≈ 0.791 µM)

**Q.** everninomicin H was tested. Which “activity against S. aureus” value ([2]; S. aureus) did it give?
**A.** moderately active

**Q.** And the MIC [2]?
**A.** 16 µg/mL

**Q.** `CCn1cc(C(=O)O)c(=O)c2ccc(C)nc21` [nalidixic acid] was tested. Which “growth of M. carbonacea” value ([3]; nalidixic acid 12.5 μg/mL) did it give?
**A.** substantially more

**Q.** And the “growth of M. carbonacea” value ([3]; nalidixic acid 25 μg/mL)?
**A.** stunted the growth

**Q.** What about the “viability of M. carbonacea” value ([3]; nalidixic acid 50 μg/mL) of the same compound?
**A.** not viable

**Q.** What about the “growth of E. coli” value ([4]; nalidixic acid 12.5 μg/mL) of the same compound?
**A.** stunted

**Q.** What about the “growth of E. coli” value ([4]; nalidixic acid 25 μg/mL) of the same compound?
**A.** stunted the growth

**Q.** Which MIC [2, 5] does the source give for `COC[C@H]1O[C@@H](O[C@@H]2OC[C@@H]3O[C@@]4(OC[C@@H](OC(=O)c5c(C)cc(O)cc5O)[C@@H]5OCO[C@H]54)O[C@H]3[C@H]2O)[C@@H](OC)[C@@H](O)[C@@H]1O[C@@H]1O[C@H](C)[C@H](OC)[C@H](O[C@@H]2O[C@H](C)[C@H]3O[C@]4(C[C@@H](O)[C@H](O[C@H]5C[C@@H](O[C@H]6C[C@](C)([N+](=O)[O-])[C@@H](OC)[C@H](C)O6)[C@H](OC(=O)c6c(C)c(Cl)c(O)c(Cl)c6OC)[C@@H](C)O5)[C@@H](C)O4)O[C@]3(C)[C@@H]2O)[C@H]1O` [everninomicin A] here?
**A.** 1 µg/mL (≈ 0.613 µM)
